Test results taken from paper PMC12040169 (PLOS Biology, 2025).

Assay: in vitro
Conditions: human, hela cells, % viability

CCOc1ncccc1C(=O)N(Cc1nnc(-c2ccc(Cl)cc2)o1)C1CC1 [CBK296934]
viability at 28.5 h, 10 µM: 96.3%

Cc1ccc(OCCSc2nnc3[nH]c4ccccc4n23)cc1 [CBK267922]
viability at 28.5 h, 10 µM: 96.2%

CN1CCN(CCOC(=O)NCc2ccnc3ccccc23)CC1 [CBK200148]
viability at 28.5 h, 10 µM: 94%

CCOC(=O)c1nc(N)c2c(CC#N)nn(C)c2n1 [CBK023254]
viability at 28.5 h, 10 µM: 109%

c1cc(C2CCCCN2Cc2ccc3[nH]ccc3c2)nc(Nc2nccs2)n1 (centres unmarked) [CBK286109]
viability at 28.5 h, 10 µM: 83.6%

O=c1[nH]cc([C@H]2C[C@@H](O)[C@@H](CO)O2)c(=O)[nH]1 [CBK201158]
viability at 28.5 h, 10 µM: 95.4%

COC1C(O)C(CO)OC1n1cc(I)c(N)nc1=O (centres unmarked) [CBK201296]
viability at 28.5 h, 10 µM: 92.2%

CC(=O)Nc1ccc(Sc2cnccn2)cc1 [CBK085838]
viability at 28.5 h, 10 µM: 89.7%

O=C(NC(=O)c1ccc2ccccc2c1)Nc1ccc(Br)cc1 [CBK261735]
viability at 28.5 h, 10 µM: 107%

CC1CCCN(c2nc3cc(C(=O)O)sc3[nH]2)C1 (centres unmarked) [CBK287159]
viability at 28.5 h, 10 µM: 88.8%

CCN(CC)C(=O)c1sc2ncccc2c1NS(=O)(=O)c1c(C)noc1C [CBK050617]
viability at 28.5 h, 10 µM: 115%

Cc1ccc(-c2[nH]ncc2C(=O)c2ccccc2C)c(O)c1 [CBK287929]
viability at 28.5 h, 10 µM: 102%

FC(F)c1cc([C@@H]2CN(CC3CCOC3)C[C@H]2c2ccccc2)n[nH]1 (some centres unmarked) [CBK285430]
viability at 28.5 h, 10 µM: 98.5%

O=C(NC1CC2(CCCCC2)Oc2ccccc21)C1CCOC1 (centres unmarked) [CBK283760]
viability at 28.5 h, 10 µM: 105%

O=C(NCCc1ccccn1)N1CCCN(Cc2cccs2)CC1 [CBK305283]
viability at 28.5 h, 10 µM: 80.5%

O=C(CN1CCN(C(c2ccccc2)c2ccccc2)CC1)CN1C(=O)c2ccccc2C1=O [CBK261682]
viability at 28.5 h, 10 µM: 97.3%

CC(Cn1cnc2ccccc21)C(=O)N1CCCCC1CN(C)C (centres unmarked) [CBK282191]
viability at 28.5 h, 10 µM: 106%

COc1cccc(C(=O)Nc2nn(Cc3ccc(C(F)(F)F)cc3)c3ccccc23)c1 [CBK048273]
viability at 28.5 h, 10 µM: 83.9%

O=c1c2cccnc2ncn1CC(O)COc1ccc(-c2ccccc2)cc1 (centres unmarked) [CBK296690]
viability at 28.5 h, 10 µM: 99.1%

O=C(NCCN1CCC(O)(c2ccc(F)cc2)CC1)C1CCCCC1 [CBK283165]
viability at 28.5 h, 10 µM: 106%

COc1cc2c(cc1/C=C1/S/C(=N\c3ccccc3)N(CCCN3CCOCC3)C1=O)OCO2 [CBK265631]
viability at 28.5 h, 10 µM: 78.7%

Cc1cc(N2CCN(C(=O)OC(C)(C)C)CC2)nc(N)n1 [CBK001843]
viability at 28.5 h, 10 µM: 110%

O=C(Nc1cc2cccnc2c(Br)n1)Nc1ccc(F)cc1C(F)(F)F [CBK063287]
viability at 28.5 h, 10 µM: 88.8%

O=S(=O)(c1ccc2c(c1)nc1n2CCC1)N1CCOCC1 [CBK019200]
viability at 28.5 h, 10 µM: 49.6%

O=C(O)CCN1CCN(S(=O)(=O)c2cccc([N+](=O)[O-])c2)CC1 [CBK268819]
viability at 28.5 h, 10 µM: 89.7%

NS(=O)(=O)c1ccc(Nc2ncccc2[N+](=O)[O-])cc1 [CBK261724]
viability at 28.5 h, 10 µM: 91.6%

CC1CCc2c(sc3ncnc(NC4CCN(CC(N)=O)CC4)c23)C1 (centres unmarked) [CBK305008]
viability at 28.5 h, 10 µM: 91.7%

O=C(C1=C(O)C(=O)N(c2ccc([N+](=O)[O-])cc2)C1c1ccccc1)c1ccccc1 (centres unmarked) [CBK263787]
viability at 28.5 h, 10 µM: 94.4%

CC(=O)N1CCC(C(=O)NC(c2ccc3c(c2)OCO3)c2cccs2)CC1 (centres unmarked) [CBK059881]
viability at 28.5 h, 10 µM: 101%

CNC(=O)C1(Cc2ccccc2-c2cccs2)CCN(C(=O)CCc2ccccc2)CC1 [CBK285900]
viability at 28.5 h, 10 µM: 108%

OCC1CCCN1c1nccnc1-c1ccccc1F (centres unmarked) [CBK038037]
viability at 28.5 h, 10 µM: 104%

Cc1nn(C)cc1-c1cncn1Cc1ccccc1CN(C)C [CBK281985]
viability at 28.5 h, 10 µM: 102%

CCS(=O)(=O)CCNC(=O)c1cnc(N2CCCCC2)nc1C [CBK307715]
viability at 28.5 h, 10 µM: 82.9%

Cc1c(C(=O)O)sc(S(=O)(=O)N2CCN(C(=O)Cc3ccccc3Cl)CC2)c1C(=O)O [CBK297137]
viability at 28.5 h, 10 µM: 107%

CCOC(=O)Nc1ccc2c(c1)N(C(=O)CN1CCOCC1)c1ccccc1CC2 [CBK261286C]
viability at 28.5 h, 10 µM: 101%

Cc1c(Cl)c(C(=O)N[C@@H]2CCN(Cc3ccccn3)C[C@H]2O)nn1C [CBK306676]
viability at 28.5 h, 10 µM: 96%

CCNC(=O)C1=C(C(=O)NCC)N2C(=NC(C)(C)c3ccccc32)S1 [CBK010172]
viability at 28.5 h, 10 µM: 102%

COc1cccc(NC(=O)CSc2nnc(CC(C)C)n2C)c1 [CBK269626]
viability at 28.5 h, 10 µM: 103%

COc1cc2c(cc1OC)CN(CCO)CC2 [CBK138322]
viability at 28.5 h, 10 µM: 108%

CC(=O)N1CC[C@H]2NC(=O)CNC(=O)C3(CCCC[C@H]2C1)CCN(C(=O)CC1CCOCC1)CC3 [CBK292030]
viability at 28.5 h, 10 µM: 92.9%

Cc1cc(C(=O)NCCn2ccnc2C)c2ccccc2n1 [CBK281895]
viability at 28.5 h, 10 µM: 100%

CCCOc1ccc(CCNc2ncnc(N)n2)cc1 [CBK262744]
viability at 28.5 h, 10 µM: 90.1%

CN1CCN(C(=O)Cn2cc(C(=O)Nc3ccc(F)cc3)ccc2=O)C(c2ccccc2)C1 (centres unmarked) [CBK286050]
viability at 28.5 h, 10 µM: 81.9%

Cc1cc(C)n(CC(=O)NCC2CCCO2)c(=O)c1C#N (centres unmarked) [CBK269926]
viability at 28.5 h, 10 µM: 85.4%

CN1CCC(N2CCN(C(=O)c3ccc(-c4ccc(S(C)(=O)=O)cc4)nc3)CC2)CC1 [CBK158862]
viability at 28.5 h, 10 µM: 91.6%

COc1cc(C2c3c(oc4ccc(Cl)cc4c3=O)C(=O)N2CC2CCCO2)ccc1OCc1ccccc1 (centres unmarked) [CBK267581]
viability at 28.5 h, 10 µM: 89.5%

Nn1c(COc2ccccc2)nnc1SCC(=O)c1ccc2c(c1)CCCC2 [CBK268466]
viability at 28.5 h, 10 µM: 100%

O=C(O)CN(c1ccc2c(c1)OCCO2)S(=O)(=O)c1ccccc1 [CBK268017]
viability at 28.5 h, 10 µM: 115%

OC(COc1cccc2c1CCCC2)CN1CCC(Cc2ccccc2)CC1 (centres unmarked) [CBK003829]
viability at 28.5 h, 10 µM: 94.7%

O=C1c2ccccc2C2OCc3ccccc3N12 (centres unmarked) [CBK109952]
viability at 28.5 h, 10 µM: 105%

Cc1ccc(Cn2nc(C(=O)Nc3nc4ccccc4s3)c3ccccc32)cc1 [CBK047837]
viability at 28.5 h, 10 µM (bulk resorufin, single well): 92.4%

O=C(O)CC1SC(Nc2ccc(F)cc2F)=NC1=O (centres unmarked) [CBK200115]
viability at 28.5 h, 10 µM: 99.3%

Cc1ccc(Cn2nc(C(=O)Nc3cc(C)on3)c3ccccc32)cc1 [CBK047844]
viability at 28.5 h, 10 µM (bulk resorufin, single well): 98.7%

COc1ccc2c(c1)C(C[C@H]1CN(C(=O)C3CC3)CC[C@H]1CC(=O)O)=NCC2 [CBK289157]
viability at 28.5 h, 10 µM: 85.7%

CN(C)c1oc(-c2ccccc2)nc1S(=O)(=O)c1ccccc1 [CBK021477]
viability at 28.5 h, 10 µM: 105%

CC(C)Nc1nccnc1Sc1cccc2ccccc12 [CBK089493]
viability at 28.5 h, 10 µM: 100%

CCN(CC)C(=O)C1CCCN(C(=O)NCCCN2CCN(C)CC2)C1 (centres unmarked) [CBK156115]
viability at 28.5 h, 10 µM: 89.7%

Cc1nc(SCC(N)=O)nc(C)c1CCC(=O)NCc1ccc(F)cc1 [CBK295201]
viability at 28.5 h, 10 µM: 88.5%

CCOC(=O)c1ccc(NC(=S)NC(=O)c2ccc(C)c(C)c2)cc1 [CBK264004]
viability at 28.5 h, 10 µM: 89.2%

CCN(CC)c1ccc(C(=O)Cn2c(=O)n(C(=O)c3cccc(S(C)(=O)=O)c3)c3ccccc32)cc1 [CBK106500]
viability at 28.5 h, 10 µM: 94.2%

CN1CCC(N2CCN(C(=O)c3ccc4c(c3)no[n+]4[O-])CC2)CC1 [CBK149095]
viability at 28.5 h, 10 µM: 92.6%

COc1ccc(C)cc1S(=O)(=O)n1ccc2c(CN3CCC(N)CC3)cccc21 [CBK113312T]
viability at 28.5 h, 10 µM: 78.6%

COc1cc(Nc2nc(-c3ccccc3F)cn3ccnc23)cc(OC)c1OC [CBK037301]
viability at 28.5 h, 10 µM: 98.9%

Cc1nn(C)c(C)c1S(=O)(=O)n1ccn(-c2ccc(N(C)C)cc2)c1=O [CBK106610]
viability at 28.5 h, 10 µM: 93%

Oc1ccccc1Sc1cnccn1 [CBK085840]
viability at 28.5 h, 10 µM: 104%

CCCC/C=C/c1cnc2[nH]c(=O)n(CCCOC)c2n1 [CBK064540]
viability at 28.5 h, 10 µM: 109%

COc1ccnc(N2CCN(C(=O)c3ccncc3Cl)CC2)n1 [CBK304367]
viability at 28.5 h, 10 µM: 102%

Cn1c(=O)c2c(-c3ccccc3)onc2n(C)c1=O [CBK023569]
viability at 28.5 h, 10 µM: 85%

Cc1nnc(Nc2ccc(F)cc2)c2ccccc12 [CBK287873]
viability at 28.5 h, 10 µM: 93.9%

O=c1ccc(-c2cccs2)nn1C[C@H]1CCCN1 [CBK284313]
viability at 28.5 h, 10 µM: 88.6%

O=C(CSc1nc[nH]n1)Nc1ccc(-c2nc3ccccc3s2)cc1 [CBK267146]
viability at 28.5 h, 10 µM: 81.9%

Nc1ncc(-c2cccc(C(F)(F)F)c2)c2cccnc12 [CBK067590]
viability at 28.5 h, 10 µM: 89.2%

CN(CCC#N)S(=O)(=O)c1ccc(Cl)c(Cl)c1 [CBK045396]
viability at 28.5 h, 10 µM: 91.8%

COc1ccc(CN2CCN(C(=O)c3ccc(C#N)cc3)CC2)cc1 [CBK305698]
viability at 28.5 h, 10 µM: 99.6%

CC(=O)c1ccc(-c2nc(NC(=O)c3cccs3)cnc2-c2ccc(F)cc2)s1 [CBK037558]
viability at 28.5 h, 10 µM: 81.8%

COC[C@H](C)Nc1ccc(C(=O)N2CCC(N3CCOCC3)CC2)cn1 [CBK306917]
viability at 28.5 h, 10 µM: 84.8%

COc1ccc(-c2cc(-c3ccccc3)nc(N/N=C/c3ccc(O)c(C)c3O)n2)cc1 [CBK261721]
viability at 28.5 h, 10 µM: 101%

c1ccc2cc(CCN3CCC(Oc4nccnc4OCCN4CCOCC4)CC3)ccc2c1 [CBK082942T]
viability at 28.5 h, 10 µM: 90.7%

c1ccc2nc(N3CCCC3)c(OC3CCNC3)nc2c1 (centres unmarked) [CBK115288]
viability at 28.5 h, 10 µM: 99.9%

Cc1cc(C[C@@H]2COC[C@H]2NCCc2ccccc2)on1 [CBK284882]
viability at 28.5 h, 10 µM: 95.5%

COC(=O)c1sccc1S(=O)(=O)N1CCN(c2ncnc3scc(C)c23)CC1 [CBK023600]
viability at 28.5 h, 10 µM: 94.2%

O=C(O)CCCC(=O)NCCc1ccc(Cl)cc1Cl [CBK296930]
viability at 28.5 h, 10 µM: 88.8%

O=C(COc1cccc(Cl)c1)NNC(=S)Nc1ccccc1 [CBK267180]
viability at 28.5 h, 10 µM: 88.4%

O=[N+]([O-])c1ccc(CN2CCN(c3nccnc3OCc3ccc(Cl)c(Cl)c3)CC2)cc1 [CBK083076T]
viability at 28.5 h, 10 µM: 101%

CC(=O)C(/N=N\c1ccc(S(=O)(=O)Nc2nccs2)cc1)C(=O)Nc1ccc(Cl)cc1 (centres unmarked) [CBK015826]
viability at 28.5 h, 10 µM: 86.8%

O=S(=O)(NCCc1cccs1)c1cc2c(N3CCNCC3)nccc2s1 [CBK041299C]
viability at 28.5 h, 10 µM: 104%

O=C(O)c1ccc(-n2nnnc2SCc2ccc(F)cc2)cc1 [CBK287229]
viability at 28.5 h, 10 µM: 95.8%

CCCN(Cc1nccn1C)C(=O)Cn1nc(C)c2ccccc2c1=O [CBK307441]
viability at 28.5 h, 10 µM: 95.4%

CCOC(=O)N1CCN(CCCCc2ccc(F)cc2)CC1 [CBK025002C]
viability at 28.5 h, 10 µM: 105%
